From publication PMC12704139, “(±)-Rutacycoumarins A and B: two pairs of unprecedented coumarin enantiomers from the aerial part of Ruta graveolens L. and chemically synthesized” (Pharmaceutical Biology, 2025)

Experiments:
MAO = tested on: MAO; parameters: method as in Kozioł et al. [2020]; settings: reference inhibitors at ∼3–5 μM; ref Kozioł et al. [2020]; cited from earlier work
hMAO-A = tested on: hMAO-A; parameters: method as in Seong et al. [2019]; settings: ref Seong et al. [2019], cited from earlier work; for isoform selectivity (in words): hMAO-A versus hMAO-B
LPS-induced HepG2 cells [1] = assay: ALT and AST in supernatant of LPS-induced HepG2 cells; format: cell-based, Homo sapiens; settings: HepG2, 100 ng/mL LPS, compounds 10, 20, 40 μM; p < 0.01 vs. model
Method: (§1) An LPS-induced hepatocyte injury model was established in HepG2 cells by treatment with 100 ng/mL LPS, using silymarin as a positive control. After treatment with test compounds at concentrations of 10, 20, and 40 μM, the cell culture supernatant was collected and centrifuged at 1000 × g for 15 min at 4 °C. The levels of alanine aminotransferase (ALT) and aspartate aminotransferase (AST) in the supernatant were quantified using commercial assay kits according to the manufacturer’s instructions. Absorbance was measured at 510 nm using a microplate reader, and results are expressed in units per liter (U/L). Additionally, the concentrations of interleukin-4 (IL-4), interleukin-10 (IL-10), and tumor necrosis factor-α (TNF-α) in the supernatant were determined by enzyme-linked immunosorbent assay (ELISA) using corresponding commercial kits. All procedures were performed in strict accordance with the manufacturer’s protocols. Cytokine levels are reported in picograms per milliliter (pg/mL), as calculated from the respective standard curves.
Silymarin was used as a positive control. The supernatant of HepG2 cells was collected from different experimental groups and separated by centrifugation (4 °C, 1000 rpm, 15 minutes). The levels of ALT and AST in the supernatant were determined following the manufacturer's instructions provided with the commercial assay kits. The optical density (OD) values of each well were measured at a wavelength of 510 nm using a microplate reader. These values are expressed in units per liter (U/L) or millimoles per liter (mmol/L).

LPS-induced HepG2 cells [2] = assay: IL-4, IL-10 and TNF-α in supernatant of LPS-induced HepG2 cells (ELISA); format: cell-based, Homo sapiens; settings: for LPS-induced inflammatory response (pro-inflammatory cytokines): HepG2, LPS
Method: as §1
The cell culture supernatant was collected and separated by centrifugation at 4°C and 1000 rpm for 15 minutes. Levels of IL-4, IL-10, and TNF-α in the supernatant were determined using enzyme-linked immunosorbent assay (ELISA), strictly following the manufacturer’s protocols provided with the corresponding commercial ELISA kits. These values were quantified in picograms per milliliter (pg/mL) based on the standard curves generated.

recombinant human MAO-B = biological target: T1, recombinant human MAO-B (Homo sapiens, UniProt P27338); assay: Recombinant human MAO-B enzyme inhibition assay; format: biochemical
T1 construct: purchased Active Motif 31503
T1 sequence (P27338 1-520): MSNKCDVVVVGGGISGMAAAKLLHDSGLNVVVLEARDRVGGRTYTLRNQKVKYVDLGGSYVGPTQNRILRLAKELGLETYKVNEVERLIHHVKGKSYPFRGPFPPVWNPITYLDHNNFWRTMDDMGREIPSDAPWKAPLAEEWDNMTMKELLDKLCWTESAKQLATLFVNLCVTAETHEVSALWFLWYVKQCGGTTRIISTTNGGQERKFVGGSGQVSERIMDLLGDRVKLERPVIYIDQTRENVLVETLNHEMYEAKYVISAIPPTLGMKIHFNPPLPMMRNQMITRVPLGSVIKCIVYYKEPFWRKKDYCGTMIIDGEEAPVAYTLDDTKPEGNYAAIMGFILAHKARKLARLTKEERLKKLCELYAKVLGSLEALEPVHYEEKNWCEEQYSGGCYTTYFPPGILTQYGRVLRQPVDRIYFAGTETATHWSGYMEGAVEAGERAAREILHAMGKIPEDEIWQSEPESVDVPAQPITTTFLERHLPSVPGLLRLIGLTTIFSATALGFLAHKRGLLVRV
Method: All compounds were tested with technical replicates. Compounds (100× final concentration) in 384-well source plates were dispensed (200 nL per well) into assay plates. Min/Max control wells received 200 µL of 100% DMSO. All wells except the Min controls were supplemented with 10 μL of 10 nM MAO-B (Min controls received buffer instead). Plates were centrifuged at 1000 × g for 1 min and incubated at 25 °C for 15 min. Then, 10 μL of 0.5 μM substrate was added to each well. After further centrifugation, the plates were protected from light and incubated for 60 min. The reaction was terminated by adding 20 μL of stop solution, followed by centrifugation and a 20-min equilibration period. Fluorescence was measured using an EnVision microplate reader. The inhibition percentage was calculated as follows: Inhibition (%) = [signal (max)− signal (sample)]/[signal (max) − signal (min)] × 100. Dose–response curves were generated by plotting the logarithm of compound concentration (X-axis) against the percentage inhibition (Y-axis). Curve fitting was performed in GraphPad Prism 8 using the ‘log(inhibitor) vs. response -Variable slope’ model to determine the IC50 values for MAO-B inhibition.

hMAO = tested on: hMAO; parameters: method as in Seong et al. [2019]; settings: enzyme kinetic studies; ref Seong et al. [2019]; cited from earlier work
human MAO-B = tested on: human MAO-B; parameters: method as in Kozioł et al. [2020]; settings: 6.17 μM; ref Kozioł et al. [2020]; cited from earlier work
MAO-A = tested on: MAO-A; parameters: method as in Kozioł et al. [2020]; settings: 6.17 μM; ref Kozioł et al. [2020]; cited from earlier work
liver injury = tested on: liver injury; parameters: method as in He et al. [2024]; settings: suppressing TNF-α/JAK1/STAT3 signaling while enhancing IL-4/IL-10 production; ref He et al. [2024]; cited from earlier work
hMAO-B = tested on: hMAO-B; parameters: method as in Seong et al. [2019]; settings: ref Seong et al. [2019]; cited from earlier work
human MAO-B (hMAO-B) = tested on: human MAO-B (hMAO-B); parameters: method as in Dhiman et al. [2018]; settings: ref Dhiman et al. [2018], cited from earlier work
[3] = HepG2 supernatant, LPS, 10–40 μM, ELISA

**Q.** Which MAO inhibition (MAO) does the source give for `C#CCN(C)CCCOc1ccc(Cl)cc1Cl` [clorgyline] here?
**A.** > 99%

**Q.** For `O=c1ccc2ccc(O)cc2o1` [umbelliferone], which “isoform selectivity (in words)” value (hMAO-A) is on record?
**A.** selectivity for hMAO-A versus hMAO-B

**Q.** Which MAO inhibition (MAO) does the source give for `C#CCN(C)[C@H](C)Cc1ccccc1` [selegiline] here?
**A.** > 99%

**Q.** For `CC1(C)CC1c1cc2ccc(O)cc2oc1=O` (racemic) [(±)-1, (±)-Rutacycoumarin A], which “LPS-elevated ALT level” value (LPS-induced HepG2 cells [1]) is on record?
**A.** significant suppression

**Q.** And the “LPS-elevated AST level” value (LPS-induced HepG2 cells [1])?
**A.** significant suppression

**Q.** And the “LPS-induced inflammatory response (pro-inflammatory cytokines)” value (LPS-induced HepG2 cells [2])?
**A.** significant suppression

**Q.** And the “MAO-B inhibition (in words)” value (recombinant human MAO-B)?
**A.** potently inhibited

**Q.** For `O=c1ccc2cc(O)c(O)cc2o1` [esculetin], which “isoform selectivity (in words)” value (hMAO-A) is on record?
**A.** selectivity for hMAO-A versus hMAO-B

**Q.** With `COc1cc2cc(C3CC3(C)C)c(=O)oc2cc1O` (racemic) [(±)-2, (±)-Rutacycoumarin B] as the molecule, how does the “LPS-elevated ALT level” value (LPS-induced HepG2 cells [1]) read?
**A.** significant suppression

**Q.** And the “LPS-elevated AST level” value (LPS-induced HepG2 cells [1])?
**A.** significant suppression

**Q.** And the “LPS-induced inflammatory response (pro-inflammatory cytokines)” value (LPS-induced HepG2 cells [2])?
**A.** significant suppression

**Q.** And the IL-4 level (LPS-induced HepG2 cells [2]; [3])?
**A.** dose-dependently restored

**Q.** And the IL-10 level (LPS-induced HepG2 cells [2]; [3])?
**A.** dose-dependently restored

**Q.** What about the TNF-α expression (LPS-induced HepG2 cells [2]; [3]) of the same molecule?
**A.** suppressed

**Q.** And the “MAO-B inhibition (in words)” value (recombinant human MAO-B)?
**A.** potently inhibited

**Q.** What does the source list for `O=Cc1c(O)ccc2ccc(=O)oc12` [8-formyl umbelliferone]?
**A.** isoform selectivity (in words) (hMAO-A): selectivity for hMAO-A versus hMAO-B; mode of hMAO inhibition (hMAO): competitive

**Q.** Which results are given for `C=CC(C)(C)c1cc2cc3c(cc2oc1=O)OC(C(C)(C)OC(C)=O)C3` (stereo not shown) [rutamarin]?
**A.** inhibition rate of human MAO-B (human MAO-B): 95.26%; inhibition of MAO-A (MAO-A): 25.15%

**Q.** Which “isoform selectivity (in words)” value (hMAO-A) does the source give for `O=C(O)c1cc2ccc(=O)oc2cc1O` [umbelliferone-6-carboxylic acid] here?
**A.** selectivity for hMAO-A versus hMAO-B

**Q.** Which hepatoprotective effect (liver injury) does the source give for `Cn1c(-c2ccc3c(c2)OCO3)cc(=O)c2ccccc21` [graveoline] here?
**A.** attenuates liver injury

**Q.** For `COc1cc2ccc(=O)oc2cc1O` [scopoletin], which “isoform selectivity (in words)” value (hMAO-A) is on record?
**A.** selectivity for hMAO-A versus hMAO-B

**Q.** What does the source list for `O=Cc1cc2ccc(=O)oc2cc1O` [6-formyl umbelliferone]?
**A.** IC50 (hMAO-B): 15.3 µM; isoform selectivity (in words) (hMAO-A): selectivity for hMAO-A versus hMAO-B; IC50 (hMAO-A): 3.23 µM; mode of hMAO inhibition (hMAO): competitive

**Q.** For `O=C(Oc1ccc2ccc(=O)oc2c1)C(O)c1ccccc1` (stereo not shown) [2-oxo-2H-chromen-7-yl 2-hydroxy-2-phenylacetate], which selectivity index (human MAO-B (hMAO-B); hMAO-B) is on record?
**A.** 8.55

**Q.** And the IC50 (human MAO-B (hMAO-B))?
**A.** 10.32 ± 0.044 µM
